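Results reflect a 48-hour exposure of cells in 96-well plates to compound at five concentrations. Here, GI50 denotes the concentration required for 50% inhibition of growth. TGI is the concentration that stops growth completely.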
Columns and labels:
Test in all cases: DTP human tumour cell line panel, 48 h
[1] = test system: 786-0 renal
[2] = test system: CAKI-1 renal
[3] = test system: HS 578T breast
[4] = test system: NCI-H522 lung
[5] = test system: OVCAR-8 ovarian
[6] = test system: HCT-15 colon
[7] = test system: SF-268 CNS
[8] = test system: EKVX NSCLC
[9] = test system: HT29 colon
[10] = test system: A549 NSCLC
[11] = test system: UO-31 renal
[12] = test system: ACHN renal
[13] = test system: OVCAR-3 ovarian
[14] = test system: SK-MEL-5 melanoma
[15] = test system: M14 melanoma
[16] = test system: T-47D breast
[17] = test system: U251 CNS
[18] = test system: SW-620 colon
[19] = test system: HCT-116 colon
[20] = test system: NCI-H460 lung
[21] = test system: SK-MEL-2 melanoma
[22] = test system: HOP-62 NSCLC
[23] = test system: UACC-62 melanoma
[24] = test system: RPMI-8226 leukemia
[25] = test system: SNB-75 CNS
[26] = test system: BT-549 breast
[27] = test system: SNB-19 CNS
[28] = test system: MDA-MB-435
[29] = test system: RXF 393 renal

## COc1ccc2nc(NNC(=O)c3cnccn3)c3cccn3c2c1
[1]
  GI50: 321 nM
  TGI: 5610 nM
[2]
  GI50: 248 nM
  TGI: 15500 nM
[3]
  GI50: 2450 nM
  TGI: > 59900 nM
[4]
  GI50: 363 nM
  TGI: 11500 nM
[5]
  GI50: 303 nM
  TGI: > 47300 nM
[6]
  GI50: 61.1 nM
  TGI: 2460 nM
[7]
  GI50: 227 nM
  TGI: 19400 nM
[8]
  GI50: 268 nM
  TGI: 18900 nM
[9]
  GI50: 414 nM
  TGI: > 67100 nM
[10]
  GI50: 269 nM
  TGI: 14300 nM
[11]
  GI50: 110 nM
  TGI: 4980 nM
[12]
  GI50: 114 nM
  TGI: 7520 nM
[13]
  GI50: 236 nM
  TGI: > 22300 nM
[14]
  GI50: 537 nM
  TGI: 4390 nM
[15]
  GI50: 208 nM
  TGI: 2850 nM
[16]
  GI50: 433 nM
  TGI: 25500 nM
[17]
  GI50: 184 nM
  TGI: 7160 nM
[18]
  GI50: 315 nM
[19]
  GI50: 195 nM
  TGI: 5260 nM
[20]
  GI50: 134 nM
  TGI: 3880 nM
[21]
  GI50: 688 nM
  TGI: > 100000 nM
[22]
  GI50: 118 nM
  TGI: 20000 nM
[23]
  GI50: 278 nM
  TGI: 2480 nM
[24]
  GI50: 312 nM
  TGI: > 100000 nM
[25]
  GI50: 408 nM
  TGI: 9310 nM
[26]
  GI50: 857 nM
  TGI: 21000 nM
[27]
  GI50: 350 nM
  TGI: 28000 nM
[28]
  GI50: 572 nM
  TGI: > 100000 nM
[29]
  GI50: 663 nM
  TGI: 7590 nM
